Like-named read-outs stand apart in the source and are kept apart here.
Legend:
[1] = system: HIV-1_89.6 passage 14 viral population (Y99H and A128T); experiment: Susceptibility of STP0404-selected viral population, passage 14, in CEMx174 cells; assay type: cell-based; conditions: passage 14 viral population (Y99H and A128T) vs wild type HIV-1_89.6
Experimental: CEM x174 cells infected with HIV primary isolate 89.6 were cultured in the presence of STP0404 at the concentration of IC90 determined earlier. At each passage, cells from original culture in the presence of inhibitor (0.75x10^6 cells) were mixed with equal amount of no-drug control cells to propagate, and viral replication was monitored by the production of p24 antigen in the supernatant. […] The population of drug-induced mutations at each passage mentioned above was determined by sequencing of at least 10 resulting transformants.
CEM x174 cells were infected with cell-free viral supernatant collected during virus resistance assays above. […] The viral stocks were normalized by the amount of p24 capsid antigen, determined to infect CEMx174 cells at approximately 10% of populations (10,000 pg / 10^6 cells). […] Cell-free supernatants were measured for p24 antigen production 5 days post-infection. p89.6 plasmid was applied for Quickchange kit (Invitrogen) to create Y99H single, A128T single, Y99H/A128T double mutants as well as two natural variants (A124N and T125A), and these 89.6 variant viruses were generated by transfecting 293T cells and culturing the produced viruses in CEMx174 cells. The IC50 of STP0404 against respective viruses were analyzed using GraphPad Prism (Version 9) and presented as means ± S.D. of triplicates. […]

[2] = system: SIVmac239; experiment: In vitro efficacy test against SIVmac239 in CEMx174 cells (p27); assay type: cell-based, SIV; conditions: p27 assay
Experimental: CEMx174 cells were infected with HIV-1 primary isolate 89.6 (From infectious clone p89.6, NIH AIDS Reagent Program) at approximately at 10% of cell population determined by FACS analyses. To determine antiviral activity during virus production, STP0404 was added at concentration in the range of 0.1 nM—10 μM during media exchange at 4 hrs post-infection. DMSO was used as a negative control. Cell-free supernatants were measured for p24 antigen production, 5 days post-infection. The anti-HIV-1 efficacy of the two enantiomers of STP0404 were also determined by using the same protocol. All assays were conducted in triplicates. […] For SIVmac239, CEMx174 cells were infected with viral supernatant containing SIVmac293 at 50,000 TCID50/mL (kind gift from Dr. G. Silvestri, Emory Yerkes National Primate Research Center) with 100 μL/10^6 cells at varying concentrations of STP0404, BI224436, and Raltegravir, and the same above protocol was followed except for that p27 capsid antigen content was measured daily for 5 days post infection.
Supplementary file ppat.1009671.s004.tiff: S1 Fig In vitro efficacy tests of STP0404, BI224436 and Raltegravir against SIVmac239 in CEMx174 cell culture. CEMx174 cells were infected with SIVmac239 with various concentrations of STP0404, BI224436, and Raltegravir, and the viral production was determined by p27 assay at 5 days post infection. […]

[3] = system: HIV-1NL4-3; experiment: In vitro anti-viral assay in human PBMCs (RT activity readout); assay type: cell-based; conditions: for TI (TC50 / IC50): minimal TI from IC50 and 10 μM
Experimental: (§1) For the assay with human PBMCs, PHA stimulated cells from at least two pooled healthy were infected with HIV-1 strains in 96-well plates. Test drug dilutions, which were prepared at a 2X concentration in microtiter tubes and 100 μL of each concentration (nine total concentrations), were placed in appropriate wells using the standard format. 50 μL of a predetermined dilution of virus stock was placed in each test well (final MOI ≅ 0.1). The PBMC cultures were maintained for 7 days following infection at 37 °C, 5% CO2. After this period, cell-free supernatant samples were collected for analysis of reverse transcriptase (RT) activity. All assays were conducted in triplicates. For RT assay, a microtiter plate-based reverse transcriptase (RT) reaction was utilized (Buckheit et al., AIDS Research and Human Retroviruses 7:295–302, 1991). Tritiated thymidine triphosphate (^3H-TTP, 80 Ci/mmol, NEN) is received in 1:1 dH2O: Ethanol at 1 mCi/mL. Poly rA:oligo dT template:primer (GE Healthcare) was prepared as a stock solution by combining 150 μL poly rA (20 mg/mL) with 0.5 mL oligo dT (20 units/mL) and 5.35 mL sterile dH2O followed by aliquoting (1.0 mL) and storage at—20°C. The RT reaction buffer was prepared fresh on a daily basis and consisted of 125 μL 1.0 M EGTA, 125 μL dH2O, 125 μL 20% Triton X100, 50 μL 1.0 M Tris (pH 7.4), 50 μL 1.0 M DTT, and 40 μL 1.0 M MgCl2. The final reaction mixture was prepared by combining 1 part ^3H-TTP, 4 parts dH2O, 2.5 parts poly rA:oligo dT stock and 2.5 parts reaction buffer. Ten microliters of this reaction mixture were placed in a round bottom microtiter plate and 15 μL of virus containing supernatant is added and mixed. The plate was incubated at 37°C for 60 mins. Following incubation, the reaction volume was spotted onto DE81 filter-mats (Wallac), washed 5 times for 5 mins each in a 5% sodium phosphate buffer or 2X SSC (Life Technologies). Next they were washed 2 times for 1 min each in distilled water, 2 times for 1 min each in 70% ethanol, and then dried. Incorporated radioactivity (counts per min, CPM) was quantified using standard liquid scintillation techniques. These PBMC analysis was conducted by fee to service through Southern Research Institute (Frederick, MD, USA). The IC50 were analyzed using GraphPad Prism (Version 9) and presented as means ± S.D. of the triplicates.

[4] = system: MT4 cells; experiment: Tissue culture cytotoxicity measurement in MT4 cells; assay type: cell-based
Excerpt: Fig 1 ALLINI structures and STP0404 activities. […] Pyridine-based KF116, D. Pyrrolopyridine-based STP0404. The conserved chemical moiety containing tert-butoxy and carboxylic acid groups are marked by “]”.

[5] = system: HIV-1 NL4-3; experiment: In vitro anti-viral assay in MT4 cells; assay type: cell-based
[6] = system: Ral-resistant (8070_1) clinical isolate; experiment: In vitro anti-viral assay in human PBMCs (RT activity readout); assay type: cell-based, HIV-1; conditions: for TI (TC50 / IC50): human PBMCs, Ral-resistant (8070_1)
Experimental: as §1

[7] = system: Ral-resistant (8070_2) clinical isolate; experiment: as above; assay type: cell-based, HIV-1
Experimental: as §1

[8] = system: Ral-resistant (4736_4) clinical isolate; experiment: as above; assay type: cell-based, HIV-1
Experimental: as §1

[9] = system: Ral-resistant (1556_1) clinical isolate; experiment: as above; assay type: cell-based, HIV-1
Experimental: as §1

[10] = system: Ral-resistant (4736_2) clinical isolate; experiment: as above; assay type: cell-based, HIV-1
Experimental: as §1

[11] = system: human PBMCs; experiment: Tissue culture cytotoxicity measurement in human PBMCs; assay type: cell-based; conditions: human PBMCs
Excerpt: Multiple chemical scaffolds such as quinoline (BI224436, Fig 1A), benzothiazole (GS-9822, Fig 1B) and pyridine (KF116, Fig 1C) were previously explored for the discovery of ALLINIs. Here, we employed the pyrrolopyridine-based scaffold to synthesize an ALLINI candidate compound, STP0404 (Fig 1D). STP0404 harbors the tert-butoxy moiety that is common to other ALLINIs (Fig 1). First, we measured its in vitro anti-HIV-1 efficacy and cytotoxicity using various HIV-1 strains in multiple cell types, with cytotoxicity initially tested up to 10 μM (Table 1). […] The calculated in vitro minimum therapeutic index (TI) of STP0404 under these conditions was accordingly >25,000. For comparison, we employed two FDA-approved HIV-1 inhibitors, AZT (RT inhibitor) and Raltegravir (Ral, INSTI), alongside 5 different Ral-resistant clinical isolates (Table 1).

[12] = system: HIV-1_89.6; experiment: In vitro anti-viral assay in CEMx174 cells (p24); assay type: cell-based; conditions: HIV-1 89.6 / CEMx174 cells; read-out: IC50
Experimental: CEMx174 cells were infected with HIV-1 primary isolate 89.6 (From infectious clone p89.6, NIH AIDS Reagent Program) at approximately at 10% of cell population determined by FACS analyses. To determine antiviral activity during virus production, STP0404 was added at concentration in the range of 0.1 nM—10 μM during media exchange at 4 hrs post-infection. DMSO was used as a negative control. Cell-free supernatants were measured for p24 antigen production, 5 days post-infection. The anti-HIV-1 efficacy of the two enantiomers of STP0404 were also determined by using the same protocol. All assays were conducted in triplicates. The IC50 values were computed using GraphPad Prism (Version 9) and presented as means ± S.D. of the triplicates. For SIVmac239, CEMx174 cells were infected with viral supernatant containing SIVmac293 at 50,000 TCID50/mL (kind gift from Dr. G. Silvestri, Emory Yerkes National Primate Research Center) with 100 μL/10^6 cells at varying concentrations of STP0404, BI224436, and Raltegravir, and the same above protocol was followed except for that p27 capsid antigen content was measured daily for 5 days post infection.

[13] = Human immunodeficiency virus 1, PBMC
[14] = column under Ral-resistant (1556_1)
[15] = column under Ral-resistant (4736_2)
[16] = column under Ral-resistant (4736_4)
[17] = column under Ral-resistant (8070_1)
[18] = column under Ral-resistant (8070_2)

SMILES	TI (TC50 / IC50) ([3]; human PBMCs, NL4-3)	TC50 [4]	TI (TC50 / IC50) ([5]; HIV-1 NL4-3 / MT4 cells)	TI (TC50 / IC50) [6]	TI (TC50 / IC50) [7]	TI (TC50 / IC50) [9]	TC50 ([11]; NL4-3, tested up to 10 μM)	TC50 [11, 14]	TC50 [11, 15]	TC50 [11, 16]	TC50 [11, 17]	TC50 [11, 18]	other results
Cc1nc2ccccc2c(-c2ccc3c4c(ccnc24)CCO3)c1[C@H](OC(C)(C)C)C(=O)O [BI224436, reference compound]													IC50 fold increase [1]: 40.5 fold; inhibition of SIVmac239 [2]: failed to inhibit
Cc1nnc(C(=O)NC(C)(C)c2nc(C(=O)NCc3ccc(F)cc3)c(O)c(=O)n2C)o1 [Raltegravir]	>22,700	> 10,000 nM	> 2,710	~10	~100	~20	>10,000 nM	>10,000 nM	>10,000 nM	>10,000 nM	>10,000 nM	>10,000 nM	IC50 ([3]; Human immunodeficiency virus 1, NL43, PBMC): 0.44 ± 0.74 nM; IC50 ([5]; Human immunodeficiency virus 1, NL43, MT4): 3.69 ± 2.8 nM; IC50 [6, 13]: > 1000 nM; IC50 [7, 13]: > 100 nM; IC50 [8, 13]: 36.5 ± 53.6 nM; TI (TC50 / IC50) ([8]; human PBMCs, Ral-resistant (4736_4)): >270; IC50 [9, 13]: > 500 nM; IC50 [10, 13]: > 50 nM
Cc1nc2c(c(C)c(C)n2Cc2cnn(C)c2)c(-c2ccc(Cl)cc2)c1[C@H](OC(C)(C)C)C(=O)O [(S) form]													IC50 [12]: 1.3 nM
Cc1cn([C@H]2C[C@H](N=[N+]=[N-])[C@@H](CO)O2)c(=O)[nH]c1=O [AZT]	>1,121	> 10,000 nM	> 179	>1,490	>125	>1,000	>10,000 nM	>10,000 nM	>10,000 nM	>10,000 nM	>10,000 nM	>10,000 nM	IC50 ([3]; human PBMCs, NL4-3, mean of triplicates ± SD, read-out: IC50): 8.92 ± 2.08 nM; IC50 ([5]; HIV-1 NL4-3 / MT4 cells, read-out: IC50): 56 ± 23.5 nM; IC50 [7]: 79.9 ± 11.8 nM; IC50 ([8]; human PBMCs, Ral-resistant (4736_4), read-out: IC50): 6.71 ± 5.74 nM; IC50 [9]: 9.33 ± 0.22 nM; TI (TC50 / IC50) ([10]; human PBMCs, Ral-resistant (4736_2)): >23,000; IC50 ([10]; human PBMCs, Ral-resistant (4736_2), read-out: IC50): 0.42 ± 0.37 nM

Reference: article PMC8297771 (PLoS Pathogens, 2021)
